Experimental data taken from patent publication US9951039B2, “Pyrimidines for treatment of bacterial infections” (The Hong Kong Polytechnic University, priority 2016, dated 2018).
Values after ≈ are worked out from the molar mass of the structure shown. Like-named read-outs stand apart in the source and are kept apart here.

Columns and labels:
E. coli strain ATCC25922 = assay: MIC, broth microdilution antimicrobial susceptibility test (CLSI); type: cell-based; details: E. coli ATCC 25922, growth inhibited by ≥90%, 18 h; for MIC: Escherichia coli, ATCC25922, read-out: MIC^c: Minimum inhibitory concentration against E. coli
Description: (§1) This example illustrates the evaluation of 2,4,6-trisubstituted pyrimidines 14 for their antimicrobial activities against the Gram positive S. aureus strain ATCC29213 and the Gram negative E. coli strain ATCC25922 by measuring their MIC, which is the lowest concentration of an antimicrobial agent that prevents visible growth of a microorganism in a broth dilution susceptibility test according to the standard method approved by the Clinical and Laboratory Standards Institute (CLSI) guidelines.^21
(§2) Procedure of Antimicrobial susceptibility test: The MIC value of compounds was measured in the antimicrobial susceptibility test using the broth microdilution procedure in accordance with the CLSI guidelines.^21 Cation-adjusted Mueller Hinton broth (CA-MHB) was used for all the S. aureus strains in the assay. Cells in exponential phase of growth were diluted to approximately 5×10^5 cfu/mL. Stock solutions of each compound were freshly dissolved in dimethyl sulfoxide (DMSO). Then, serial dilutions of each compound in CA-MHB medium were added into 96-well microplate. The final percentage of DMSO in the assay was 1%. Control experiments were performed with 1% DMSO instead of the compound solution. After being incubated at 37° C. for 18 h, OD600 value of cells was measured on a microplate reader and the percentage of bacterial cell inhibition with respect to controls was calculated. The MIC value was defined as the lowest compound concentration at which the growth of bacteria was inhibited by ≥90%. Three independent assays were performed for each compound.

[1] = system: S. aureus strain ATCC29213; assay: as above; type: cell-based; details: for MIC^c/MIC^b: Selectivity index: E. coli ATCC 25922 MIC over S. aureus 29213 MIC; for antibacterial activity in words (SAR analysis): MIC screening, S. aureus; for MIC: Staphylococcus aureus
Description: as §1, §2

[2] = system: S. aureus ATCC BAA-41 (methicillin resistant); assay: MIC against clinically isolated strain 4; type: cell-based; details: Staphylococcus aureus, ATCCBAA41
Experimental: as §2
(§3) Results: Three compounds, namely 14av_amine16, 14dv_amine16 and 14dv_amine06, were selected to be tested against nine in-house clinically isolated bacterial strains including S. aureus ATCC29247, which is an ampicillin resistant strain, S. aureus ATCC BAA-41, ATCC BAA-1717, ATCC BAA-1720, ATCC 43300 which are methicillin resistant strains and four USA300 strains, (#417, #757, #1799 and #2690), which are the predominant strain type of community-associated MRSA strains in the United States.

[3] = system: USA300 #417 (community-associated MRSA); assay: MIC against clinically isolated strain 6; type: cell-based, S. aureus; details: Staphylococcus aureus
Experimental: as §2, §3

[4] = system: S. aureus ATCC BAA-1720 (methicillin resistant); assay: MIC against clinically isolated strain 3; type: cell-based; details: Staphylococcus aureus, ATCCBAA1720
Experimental: as §2, §3

[5] = system: USA300 #1799 (community-associated MRSA); assay: MIC against clinically isolated strain 8; type: cell-based, S. aureus; details: Staphylococcus aureus
Experimental: as §2, §3

[6] = system: S. aureus ATCC BAA-1717 (methicillin resistant); assay: MIC against clinically isolated strain 2; type: cell-based; details: Staphylococcus aureus, ATCCBAA1717
Experimental: as §2, §3

[7] = system: S. aureus ATCC 29247 (ampicillin resistant strain); assay: MIC against clinically isolated strain 1; type: cell-based; details: Staphylococcus aureus, ATCC29247
Experimental: as §2, §3

[8] = system: USA300 #757 (community-associated MRSA); assay: MIC against clinically isolated strain 7; type: cell-based, S. aureus; details: Staphylococcus aureus
Experimental: as §2, §3

[9] = system: USA300 #2690 (community-associated MRSA); assay: MIC against clinically isolated strain 9; type: cell-based, S. aureus; details: Staphylococcus aureus
Experimental: as §2, §3

[10] = system: S. aureus ATCC 43300 (methicillin resistant); assay: MIC against clinically isolated strain 5; type: cell-based; details: Staphylococcus aureus, ATCC43300
Experimental: as §2, §3

[11] = S. aureus 29213, growth inhibited by ≥90%, 18 h
[12] = ATCC29213, S. aureus 29213, growth inhibited by ≥90%, 18 h, read-out: MIC^b: Minimum inhibitory concentration against S. aureus
[13] = S. aureus ATCC29213, read-out: MIC against S. aureus

| SMILES | MIC^c: Minimum inhibitory concentration against E. coli (E. coli strain ATCC25922) [µM] | MIC^c/MIC^b: Selectivity index [1] | MIC^b: Minimum inhibitory concentration against S. aureus [1, 11] [µM] | antibacterial activity in words (SAR analysis) [1] | also measured |
| --- | --- | --- | --- | --- | --- |
| CCC(CC)c1cc(CCN2CCCN(Cc3ccc(C(C)C)cc3)CC2)nc(-c2ccncc2)n1 [Compound 14av_amine06] | >125 | >7 | 16 (≈ 7.77 µg/mL) |  |  |
| CCC(CC)c1cc(CCN2CCCN(Cc3ccc(C(C)(C)C)cc3)CC2)nc(-c2ccncc2)n1 [Compound 14av_amine07] | >125 | >7 | 16 (≈ 8 µg/mL) |  |  |
| CCC(CC)c1cc(CCN2CCCN(Cc3ccc(Br)cc3)CC2)nc(-c2ccncc2)n1 [Compound 14av_amine08] | >125 | >7 | 16 (≈ 8.36 µg/mL) |  |  |
| CCC(CC)c1cc(CCN2CCCN(Cc3ccc(Cl)cc3)CC2)nc(-c2ccncc2)n1 [Compound 14av_amine13] | >125 | >9 | 13 (≈ 6.22 µg/mL) |  |  |
| CCC(CC)c1cc(CCN2CCCN(Cc3cccc(C(F)(F)F)c3)CC2)nc(-c2ccncc2)n1 [Compound 14av_amine17] | >125 | >7 | 16 (≈ 8.19 µg/mL) |  |  |
| CCC(CC)c1cc(CCN2CCCN(Cc3ccccc3C(F)(F)F)CC2)nc(-c2ccncc2)n1 [Compound 14av_amine18] | >125 | >7 | 16 (≈ 8.19 µg/mL) |  |  |
| CCC(CC)c1cc(CCN2CCCN(C(=O)c3ccc(C(F)(F)F)cc3)CC2)nc(-c2ccncc2)n1 [Compound 14av_amine19] |  |  |  | poor antibacterial activity |  |
| CCC(CC)c1cc(CCN2CCCN(CCc3ccc(C(F)(F)F)cc3)CC2)nc(-c2ccncc2)n1 [Compound 14av_amine20, 1-(2-(6-(pentan-3-yl)-2-(pyridin-4-yl)pyrimidin-4-yl)ethyl)-4-(4-(trifluoromethyl)phenethyl)-1,4-diazepane] |  | >15 |  | low MIC value | MIC (E. coli strain ATCC25922): > 125 µM; MIC [1, 12]: 8 µM (≈ 4.21 µg/mL); MIC [1, 13]: 5 to 8 µM (≈ 2.63 to 4.21 µg/mL) |
| CCC(CC)c1cc(CCN2CCN(Cc3ccc(C(F)(F)F)cc3)CC2)nc(-c2ccncc2)n1 [Compound 14av_amine24] | >125 | >10 | 12 (≈ 5.97 µg/mL) | poor antibacterial activity |  |
| CCC(CC)c1cc(CCN2CCN(Cc3cccc(C(F)(F)F)c3)CC2)nc(-c2ccncc2)n1 [Compound 14av_amine28] | >125 | >12 | 10 (≈ 4.98 µg/mL) |  |  |
| CCC(CC)c1cc(CCN2CCCN(Cc3ccc(C(F)(F)F)cc3)CC2)nc(C)n1 [Compound 14aw_amine16] |  |  |  | weak antibacterial activity |  |
| CCC(CC)c1cc(CCN2CCCN(Cc3ccc(C(F)(F)F)cc3)CC2)nc(-c2ccccc2)n1 [Compound 14ax_amine16] |  |  |  | weak antibacterial activity |  |
| CCC(CC)c1cc(CCN2CCCN(Cc3ccc(C(F)(F)F)cc3)CC2)nc(-c2cccnc2)n1 [Compound 14ay_amine16] |  |  |  | weak antibacterial activity |  |
| CCC(CC)c1cc(CCN2CCCN(Cc3ccc(C(F)(F)F)cc3)CC2)nc(-c2ccccn2)n1 [Compound 14az_amine16] |  |  |  | weak antibacterial activity |  |
| CC(C)c1cc(CCN2CCCN(Cc3ccc(C(F)(F)F)cc3)CC2)nc(-c2ccncc2)n1 [Compound 14bv_amine16] |  |  |  | poor antibacterial activity |  |
| CCCCCc1cc(CCN2CCCN(Cc3ccc(C(C)C)cc3)CC2)nc(-c2ccncc2)n1 [Compound 14cv_amine06] | >125 | >12 | 10 (≈ 4.86 µg/mL) |  |  |
| CCCCCc1cc(CCN2CCCN(Cc3ccc(C(F)(F)F)cc3)CC2)nc(-c2ccncc2)n1 [Compound 14cv_amine16] | >125 | >12 | 10 (≈ 5.12 µg/mL) | poor antibacterial activity |  |
| CC(C)c1ccc(CN2CCCN(CCc3cc(-c4ccccc4)nc(-c4ccncc4)n3)CC2)cc1 [Compound 14dv_amine06, 1-(4-isopropylbenzyl)-4-(2-(6-phenyl-2-(pyridin-4-yl)pyrimidin-4-yl)ethyl)-1,4-diazepane] |  | >25 |  |  | MIC [2]: 10 µM (≈ 4.92 µg/mL); MIC [3]: 10 µM (≈ 4.92 µg/mL); MIC [4]: 10 µM (≈ 4.92 µg/mL); MIC [5]: 10 µM (≈ 4.92 µg/mL); MIC [6]: 5 µM (≈ 2.46 µg/mL); MIC [7]: 5 µM (≈ 2.46 µg/mL); MIC [8]: 10 µM (≈ 4.92 µg/mL); MIC (E. coli strain ATCC25922): > 125 µM; MIC [1, 12]: 5 µM (≈ 2.46 µg/mL); MIC [1, 13]: 5 to 8 µM (≈ 2.46 to 3.93 µg/mL); MIC [9]: 10 µM (≈ 4.92 µg/mL); MIC [10]: 10 µM (≈ 4.92 µg/mL) |
| CC(C)(C)c1ccc(CN2CCCN(CCc3cc(-c4ccccc4)nc(-c4ccncc4)n3)CC2)cc1 [Compound 14dv_amine07, 1-(4-(tert-butyl)benzyl)-4-(2-(6-phenyl-2-(pyridin-4-yl)pyrimidin-4-yl)ethyl)-1,4-diazepane] |  | >25 |  |  | MIC (E. coli strain ATCC25922): > 125 µM; MIC [1, 12]: 5 µM (≈ 2.53 µg/mL); MIC [1, 13]: 5 to 8 µM (≈ 2.53 to 4.05 µg/mL) |
| Brc1ccc(CN2CCCN(CCc3cc(-c4ccccc4)nc(-c4ccncc4)n3)CC2)cc1 [Compound 14dv_amine08, 1-(4-bromobenzyl)-4-(2-(6-phenyl-2-(pyridin-4-yl)pyrimidin-4-yl)ethyl)-1,4-diazepane] |  | >25 |  |  | MIC (E. coli strain ATCC25922): > 125 µM; MIC [1, 12]: 5 µM (≈ 2.64 µg/mL); MIC [1, 13]: 5 to 8 µM (≈ 2.64 to 4.23 µg/mL) |
| Fc1cccc(CN2CCCN(CCc3cc(-c4ccccc4)nc(-c4ccncc4)n3)CC2)c1 [Compound 14dv_amine10] | >125 | >12 | 10 (≈ 4.68 µg/mL) |  |  |
| Fc1ccc(CN2CCCN(CCc3cc(-c4ccccc4)nc(-c4ccncc4)n3)CC2)cc1F [Compound 14dv_amine12] | >125 | >12 | 10 (≈ 4.86 µg/mL) |  |  |
| FC(F)(F)c1ccc(CCN2CCCN(CCc3cc(-c4ccccc4)nc(-c4ccncc4)n3)CC2)cc1 [Compound 14dv_amine20, 1-(2-(6-phenyl-2-(pyridin-4-yl)pyrimidin-4-yl)ethyl)-4-(4-(trifluoromethyl)phenethyl)-1,4-diazepane] |  | >25 |  |  | MIC (E. coli strain ATCC25922): > 125 µM; MIC [1, 12]: 5 µM (≈ 2.66 µg/mL); MIC [1, 13]: 5 to 8 µM (≈ 2.66 to 4.25 µg/mL) |
